Values after ≈ are worked out from the molar mass of the structure shown.
Columns and labels:
Bacopa monnieri [1] = experiment: Toxicity against Bacopa monnieri assessed as number of leaves at 50 ug/ml after 15 days by Bacopa sensor test (reference value: 6); type: organism-based; details: in vivo, 360 h
Caco-2 [2] = experiment: Cytotoxic activity against Homo sapiens (human) Caco2 cells incubated for 4 hr followed by compound wash-out measured after doubling time by MTT assay; type: functional, cell-based
WRL68 [3] = experiment: Cytotoxic activity against Homo sapiens (human) WRL68 cells by clonogenic assay; type: functional, cell-based
Bacopa monnieri [4] = experiment: Toxicity against Bacopa monnieri assessed as number of shoots at 50 ug/ml after 15 days by Bacopa sensor test (reference value: 2); type: organism-based; details: in vivo, 360 h
WRL68 [5] = experiment: Cytotoxic activity against Homo sapiens (human) WRL68 cells incubated for 4 hr followed by compound wash-out measured after doubling time by MTT assay; type: functional, cell-based
MCF7 [6] = experiment: Cytotoxic activity against Homo sapiens (human) MCF7 cells incubated for 4 hr followed by compound wash-out measured after doubling time by MTT assay; type: functional, cell-based
Caco-2 [7] = experiment: Cytotoxic activity against Homo sapiens (human) Caco2 cells by clonogenic assay; type: functional, cell-based
Bacopa monnieri [8] = experiment: Toxicity against Bacopa monnieri assessed as shoot elongation at 50 ug/ml after 15 days by Bacopa sensor test (reference value: 0.8 cm); type: organism-based; details: in vivo, 360 h
PA-1 [9] = experiment: Cytotoxic activity against Homo sapiens (human) PA1 cells incubated for 4 hr followed by compound wash-out measured after doubling time by MTT assay; type: functional, cell-based
Bacopa monnieri [10] = experiment: Toxicity against Bacopa monnieri assessed as change in leaf colour at 50 ug/ml after 15 days by Bacopa sensor test; type: organism-based; details: in vivo, 360 h
COLO 320 [11] = experiment: Cytotoxic activity against Homo sapiens (human) COLO320 cells by clonogenic assay; type: functional, cell-based
Bacopa monnieri [12] = experiment: Toxicity against Bacopa monnieri assessed as number of roots at 50 ug/ml after 15 days by Bacopa sensor test (reference value: 2); type: organism-based; details: in vivo, 360 h
COLO 320 [13] = experiment: Cytotoxic activity against Homo sapiens (human) COLO320 cells incubated for 4 hr followed by compound wash-out measured after doubling time by MTT assay; type: functional, cell-based
MCF7 [14] = experiment: Cytotoxic activity against Homo sapiens (human) MCF7 cells by clonogenic assay; type: functional, cell-based
PA-1 [15] = experiment: Cytotoxic activity against Homo sapiens (human) PA1 cells by clonogenic assay; type: functional, cell-based
Caco-2 [16] = experiment: Ratio of vinblastine IC50 to compound IC50 for Homo sapiens (human) Caco2 cells by MTT assay; type: functional
WRL68 [17] = experiment: Ratio of vinblastine IC50 to compound IC50 for Homo sapiens (human) WRL68 cells by MTT assay; type: functional
COLO 320 [18] = experiment: Ratio of vinblastine IC50 to compound IC50 for Homo sapiens (human) COLO320 cells by MTT assay; type: functional
[19] = Homo sapiens, Caco-2, 4 h, read-out: IC50
[20] = Homo sapiens, WRL68, 4 h, read-out: IC50
[21] = Homo sapiens, MCF7, 4 h, read-out: IC50
[22] = Homo sapiens, PA-1, 4 h, read-out: IC50
[23] = Homo sapiens, COLO 320, 4 h, read-out: IC50

SMILES | Activity (Bacopa monnieri [1]) | IC50 (Caco-2 [2]; [19]) | IC50 (WRL68 [3]) | Activity (Bacopa monnieri [4]) | IC50 (WRL68 [5]; [20]) | IC50 (MCF7 [6]; [21]) | IC50 (Caco-2 [7]) | Activity (Bacopa monnieri [8]) | IC50 (PA-1 [9]; [22]) | Activity (Bacopa monnieri [10]) | IC50 (COLO 320 [11]) | Activity (Bacopa monnieri [12]) | IC50 (COLO 320 [13]; [23]) | IC50 (MCF7 [14]) | IC50 (PA-1 [15]) | IC50 (Caco-2 [2]; caco-2) | other results
COC(=O)C1=CO[C@@H](O[C@@H]2O[C@H](COC(=O)C=C(C)C)[C@@H](OC(C)=O)[C@H](OC(C)=O)[C@H]2OC(C)=O)[C@@H]2[C@@H](C)[C@@H](OC(C)=O)C[C@H]12 | 6 | 0.8 µg/mL (≈ 1.25 µM) | 3.86 µg/mL (≈ 6.03 µM) | 2 | 1.2 µg/mL (≈ 1.87 µM) | 1 µg/mL (≈ 1.56 µM) | 6.2 µg/mL (≈ 9.68 µM) | 0.4 cm | 0.65 µg/mL (≈ 1.01 µM) | Non-toxic | 2.84 µg/mL (≈ 4.43 µM) | 2 | 0.08 µg/mL (≈ 0.125 µM) | 4.65 µg/mL (≈ 7.26 µM) | 1.84 µg/mL (≈ 2.87 µM) |  | 
COC(=O)C1=CO[C@@H](O[C@@H]2O[C@H](COC(=O)c3cc(OC)c(OC)c(OC)c3)[C@@H](OC(C)=O)[C@H](OC(C)=O)[C@H]2OC(C)=O)[C@@H]2[C@@H](C)[C@@H](OC(C)=O)C[C@H]12 | 4 | 0.06 µg/mL (≈ 0.0797 µM) | 1.2 µg/mL (≈ 1.59 µM) | 2 | 0.54 µg/mL (≈ 0.717 µM) | 0.25 µg/mL (≈ 0.332 µM) | 0.46 µg/mL (≈ 0.611 µM) | 0.4 cm | 0.1 µg/mL (≈ 0.133 µM) | Non-toxic | 0.12 µg/mL (≈ 0.159 µM) | 2 | 0.04 µg/mL (≈ 0.0531 µM) | 0.72 µg/mL (≈ 0.957 µM) | 0.45 µg/mL (≈ 0.598 µM) |  | Ratio IC50 (Caco-2 [16]): 8; Ratio IC50 (WRL68 [17]): 3; Ratio IC50 (COLO 320 [18]): 13
CCCCCCCCCCCCCC(=O)OC[C@H]1O[C@@H](O[C@@H]2OC=C(C(=O)OC)[C@H]3C[C@H](OC(C)=O)[C@H](C)[C@@H]23)[C@H](OC(C)=O)[C@@H](OC(C)=O)[C@@H]1OC(C)=O |  |  |  |  | 58.5 µg/mL (≈ 76.1 µM) | 24.6 µg/mL (≈ 32 µM) |  |  | 6.5 µg/mL (≈ 8.45 µM) |  |  |  | 30 µg/mL (≈ 39 µM) |  |  | Not Active | 
CCCCCCCCCCCCCCCC(=O)OC[C@H]1O[C@@H](O[C@@H]2OC=C(C(=O)OC)[C@H]3C[C@H](OC(C)=O)[C@H](C)[C@@H]23)[C@H](OC(C)=O)[C@@H](OC(C)=O)[C@@H]1OC(C)=O |  |  |  |  |  |  |  |  |  |  |  |  |  |  |  | Not Active | IC50 (WRL68 [5]; wrl68): Not Active; IC50 (MCF7 [6]; mcf7): Not Active; IC50 (PA-1 [9]; pa-1): Not Active; IC50 (COLO 320 [13]; colo 320): Not Active
COC(=O)C1=CO[C@@H](O[C@@H]2O[C@H](CO)[C@@H](OC(C)=O)[C@H](OC(C)=O)[C@H]2OC(C)=O)[C@@H]2[C@@H](C)[C@@H](OC(C)=O)C[C@H]12 |  |  |  |  |  |  |  |  |  |  |  |  |  |  |  | Not Active | IC50 (WRL68 [5]; wrl68): Not Active; IC50 (MCF7 [6]; mcf7): Not Active; IC50 (PA-1 [9]; pa-1): Not Active; IC50 (COLO 320 [13]; colo 320): Not Active
COc1cccc2c1C(=O)c1c(O)c3c(c(O)c1C2=O)C[C@@](O)(C(=O)CO)C[C@@H]3O[C@H]1C[C@H](N)[C@H](O)[C@H](C)O1 [DOXORUBICIN] | 2 |  |  | 1 |  |  |  | 0.2 cm |  | Toxic |  | 0 |  |  |  |  | 
COC(=O)C1=CO[C@@H](O[C@@H]2O[C@H](CO)[C@@H](O)[C@H](O)[C@H]2O)[C@@H]2[C@@H](C)[C@@H](O)C[C@H]12 [LOGANIN] | 6 | 1.28 µg/mL (≈ 3.28 µM) | 3.2 µg/mL (≈ 8.2 µM) | 2 | 1.86 µg/mL (≈ 4.76 µM) | 4.85 µg/mL (≈ 12.4 µM) | 3.45 µg/mL (≈ 8.84 µM) | 0.4 cm | 1.45 µg/mL (≈ 3.71 µM) | Non-toxic | 2.2 µg/mL (≈ 5.64 µM) | 2 | 1 µg/mL (≈ 2.56 µM) | 6.45 µg/mL (≈ 16.5 µM) | 4.85 µg/mL (≈ 12.4 µM) |  | 
CCC(=O)OC[C@H]1O[C@@H](O[C@@H]2OC=C(C(=O)OC)[C@H]3C[C@H](OC(C)=O)[C@H](C)[C@@H]23)[C@H](OC(C)=O)[C@@H](OC(C)=O)[C@@H]1OC(C)=O | 4 | 2.85 µg/mL (≈ 4.64 µM) | 8.4 µg/mL (≈ 13.7 µM) | 2 | 2.65 µg/mL (≈ 4.31 µM) | 1.88 µg/mL (≈ 3.06 µM) | 4.88 µg/mL (≈ 7.94 µM) | 0.65 cm | 1.24 µg/mL (≈ 2.02 µM) | Non-toxic | 4.86 µg/mL (≈ 7.91 µM) | 2 | 0.85 µg/mL (≈ 1.38 µM) | 4.26 µg/mL (≈ 6.93 µM) | 2.85 µg/mL (≈ 4.64 µM) |  | 
COC(=O)C1=CO[C@@H](O[C@@H]2O[C@H](COC(=O)c3cccc([N+](=O)[O-])c3)[C@@H](OC(C)=O)[C@H](OC(C)=O)[C@H]2OC(C)=O)[C@@H]2[C@@H](C)[C@@H](OC(C)=O)C[C@H]12 | 6 | 1 µg/mL (≈ 1.41 µM) | 6.5 µg/mL (≈ 9.19 µM) | 2 | 3.2 µg/mL (≈ 4.52 µM) | 1.25 µg/mL (≈ 1.77 µM) | 5.42 µg/mL (≈ 7.66 µM) | 0.8 cm | 0.85 µg/mL (≈ 1.2 µM) | Non-toxic | 8.2 µg/mL (≈ 11.6 µM) | 2 | 0.44 µg/mL (≈ 0.622 µM) | 3.42 µg/mL (≈ 4.83 µM) | 2.65 µg/mL (≈ 3.74 µM) |  | 
CCCCCCCCCCCC(=O)OC[C@H]1O[C@@H](O[C@@H]2OC=C(C(=O)OC)[C@H]3C[C@H](OC(C)=O)[C@H](C)[C@@H]23)[C@H](OC(C)=O)[C@@H](OC(C)=O)[C@@H]1OC(C)=O | 6 | 0.42 µg/mL (≈ 0.567 µM) | 2.62 µg/mL (≈ 3.54 µM) | 2 | 0.85 µg/mL (≈ 1.15 µM) | 0.24 µg/mL (≈ 0.324 µM) | 1.24 µg/mL (≈ 1.67 µM) | 0 cm | 0.15 µg/mL (≈ 0.202 µM) | Non-toxic | 0.24 µg/mL (≈ 0.324 µM) | 3 | 0.04 µg/mL (≈ 0.054 µM) | 0.75 µg/mL (≈ 1.01 µM) | 0.42 µg/mL (≈ 0.567 µM) |  | Ratio IC50 (WRL68 [17]): 2; Ratio IC50 (COLO 320 [18]): 13
C=CC(=O)OC[C@H]1O[C@@H](O[C@@H]2OC=C(C(=O)OC)[C@H]3C[C@H](OC(C)=O)[C@H](C)[C@@H]23)[C@H](OC(C)=O)[C@@H](OC(C)=O)[C@@H]1OC(C)=O |  |  |  |  |  |  |  |  |  |  |  |  |  |  |  | Not Active | IC50 (WRL68 [5]; wrl68): Not Active; IC50 (MCF7 [6]; mcf7): Not Active; IC50 (PA-1 [9]; pa-1): Not Active; IC50 (COLO 320 [13]; colo 320): Not Active
CC[C@]1(O)C[C@@H]2CN(CCc3c([nH]c4ccccc34)[C@@](C(=O)OC)(c3cc4c(cc3OC)N(C)[C@H]3[C@@](O)(C(=O)OC)[C@H](OC(C)=O)[C@]5(CC)C=CCN6CC[C@]43[C@@H]65)C2)C1 [VINBLASTINE] | 6 | 0.46 µg/mL (≈ 0.567 µM) |  | 2 |  |  | 2.8 µg/mL (≈ 3.45 µM) | 0.6 cm | 0.03 µg/mL (≈ 0.037 µM) | Non-toxic | 1.6 µg/mL (≈ 1.97 µM) | 2 | 0.52 µg/mL (≈ 0.641 µM) |  | 0.15 µg/mL (≈ 0.185 µM) |  | 
COC(=O)C1=CO[C@@H](O[C@@H]2O[C@H](COC(c3ccccc3)(c3ccccc3)c3ccccc3)[C@@H](O)[C@H](O)[C@H]2O)[C@@H]2[C@@H](C)[C@@H](O)C[C@H]12 [6'-O-TRITYL LOGANIN] | 6 | 0.56 µg/mL (≈ 0.885 µM) | 4.2 µg/mL (≈ 6.64 µM) | 2 | 1.86 µg/mL (≈ 2.94 µM) | 1 µg/mL (≈ 1.58 µM) | 2.54 µg/mL (≈ 4.01 µM) | 0.4 cm | 0.65 µg/mL (≈ 1.03 µM) | Non-toxic | 1.4 µg/mL (≈ 2.21 µM) | 2 | 0.25 µg/mL (≈ 0.395 µM) | 2.8 µg/mL (≈ 4.43 µM) | 2.42 µg/mL (≈ 3.82 µM) |  | 

From ChEMBL document CHEMBL3045094, “A cytotoxic agent from Strychnos nux-vomica and biological evaluation of its modified analogues” (Med Chem Res, 2012)
